Assay results taken from patent publication US10888099B2, “Granulation of a Stevia sweetener” (PureCircle Sdn Bhd, priority 2009, dated 2021).
Where two headings read alike, the source gives them in different places. Blank lines part the entries; values can stand above or below the compound they belong to. Where a SMILES comes first, the peptide text is derived from it.

Tests used:
[1] = standard sweetening power, Saccharose = 1; cited from earlier work
[2] = cited from earlier work; for solubility: known Rebaudioside A forms, g soluble in 100 g solvent
[3] = cited from earlier work
[4] = type: physicochemical
Experimental: Hereinafter, unless specified otherwise, the solubility of a material is determined in reverse osmosis water at room temperature. […] The obtained powder was loaded into a 1000 L rotary vacuum dryer and dried at 105° C. at 10 mbar pressure for 3 hours. After 3 hours, preheated nitrogen at 100° C. was introduced into the vacuum chamber till ambient pressure was reached. Upon reaching ambient pressure, the vacuum dryer was connected to a vent and the nitrogen flow was continued at 100 L/min for a 4-hour time period. […] A sample of the powder was withdrawn from the dryer and the solubility tested in deionized water at room temperature.

Compound: C=C1C[C@@]23CC[C@H]4[C@@](C)(CCC[C@@]4(C)C(=O)O[C@@H]4O[C@H](CO)[C@@H](O)[C@H](O)[C@H]4O)[C@@H]2CC[C@]1(O[C@@H]1O[C@H](CO)[C@@H](O)[C@H](O)[C@H]1O[C@@H]1O[C@H](CO)[C@@H](O)[C@H](O)[C@H]1O)C3 [Stevioside]
- Sweetness power [1]: 200

Compound: C[C@@H](NC(=O)[C@@H](N)CC(=O)O)C(=O)NC1C(C)(C)SC1(C)C [Alitame]
- Sweetness power [1]: 2000

Compound: OC[C@H]1O[C@H](O[C@]2(CCl)O[C@H](CCl)[C@@H](O)[C@@H]2O)[C@H](O)[C@@H](O)[C@H]1Cl [Sucralose]
- Sweetness power [1]: 600

Compound: CC1(C)[C@@H](O[C@H]2O[C@H](C(=O)O)[C@@H](O)[C@H](O)[C@H]2O[C@@H]2O[C@H](C(=O)O)[C@@H](O)[C@H](O)[C@H]2O)CC[C@]2(C)[C@H]3C(=O)C=C4[C@@H]5C[C@@](C)(C(=O)O)CC[C@]5(C)CC[C@@]4(C)[C@]3(C)CC[C@@H]12 [Glycyrrhizin]
- Sweetness power [1]: 50

Compound: C=C1C[C@@]23CC[C@H]4[C@@](C)(CCC[C@@]4(C)C(=O)O[C@@H]4O[C@H](CO)[C@@H](O)[C@H](O)[C@H]4O)[C@@H]2CC[C@]1(O[C@@H]1O[C@H](CO)[C@@H](O)[C@H](O[C@@H]2O[C@H](CO)[C@@H](O)[C@H](O)[C@H]2O)[C@H]1O[C@@H]1O[C@H](CO)[C@@H](O)[C@H](O)[C@H]1O)C3 [Form 3, Rebaudioside A]
- solubility ([2]; listed as solvate form): greater than 30%
- Rate of dissolution in H2O at 25° C. ([3]; grade in words): High
- Rate of dissolution in H2O at 25° C. ([3]; in 5 minutes): (>30% in

Compound: CC1=CC(=O)NS(=O)(=O)O1 [Acesulfame-K]
- Sweetness power [1]: 200

Compound: COC(=O)[C@H](Cc1ccccc1)NC(=O)[C@@H](N)CC(=O)O [Aspartame] (H-Asp-Phe-OMe)
- Sweetness power [1]: 200

- dissolution time ([4]; deionized water at room temperature): 7 min
Compound: C=C1C[C@@]23CC[C@H]4[C@@](C)(CCC[C@@]4(C)C(=O)O[C@@H]4O[C@H](CO)[C@@H](O)[C@H](O)[C@H]4O)[C@@H]2CC[C@]1(O[C@@H]1O[C@H](CO)[C@@H](O)[C@H](O[C@@H]2O[C@H](CO)[C@@H](O)[C@H](O)[C@H]2O)[C@H]1O[C@@H]1O[C@H](CO)[C@@H](O)[C@H](O)[C@H]1O)C3 [high solubility Rebaudioside A powder, Rebaudioside A]

Compound: OC[C@H]1O[C@@](CO)(O[C@H]2O[C@H](CO)[C@@H](O)[C@H](O)[C@H]2O)[C@@H](O)[C@@H]1O [Saccharose]
- Sweetness power [1]: 1

Compound: COc1ccc(CCC(=O)c2c(O)cc(O[C@@H]3O[C@H](CO)[C@@H](O)[C@H](O)[C@H]3O[C@@H]3O[C@@H](C)[C@H](O)[C@@H](O)[C@H]3O)cc2O)cc1O [NHDC, neohesperidin dihydrochalcone]
- Sweetness power [1]: 1000

Compound: C=C1C[C@@]23CC[C@H]4[C@@](C)(CCC[C@@]4(C)C(=O)O[C@@H]4O[C@H](CO)[C@@H](O)[C@H](O)[C@H]4O)[C@@H]2CC[C@]1(O[C@@H]1O[C@H](CO)[C@@H](O)[C@H](O[C@@H]2O[C@H](CO)[C@@H](O)[C@H](O)[C@H]2O)[C@H]1O[C@@H]1O[C@H](CO)[C@@H](O)[C@H](O)[C@H]1O)C3 [Form 2, Rebaudioside A]
- solubility ([2]; listed as anhydrous form of Rebaudioside A): up to 30%
- solubility ([2]; listed as anhydrous form): up to 30%
- Rate of dissolution in H2O at 25° C. ([3]; grade in words): Intermediate
- Rate of dissolution in H2O at 25° C. ([3]; in 5 minutes): (<30% in 5

Compound: C=C1C[C@@]23CC[C@H]4[C@@](C)(CCC[C@@]4(C)C(=O)O[C@@H]4O[C@H](CO)[C@@H](O)[C@H](O)[C@H]4O)[C@@H]2CC[C@]1(O[C@@H]1O[C@H](CO)[C@@H](O)[C@H](O[C@@H]2O[C@H](CO)[C@@H](O)[C@H](O)[C@H]2O)[C@H]1O[C@@H]1O[C@H](CO)[C@@H](O)[C@H](O)[C@H]1O)C3 [Form 1, Rebaudioside A]
- solubility (in words) ([2]; compared among Rebaudioside A forms): lowest solubility
- solubility ([2]; listed as hydrate form): less than 0.2%
- Rate of dissolution in H2O at 25° C. ([3]; grade in words): Very low
- Rate of dissolution in H2O at 25° C. ([3]; in 60 minutes): (<0.2% in

- solubility [4]: 1.6%
Compound: C=C1C[C@@]23CC[C@H]4[C@@](C)(CCC[C@@]4(C)C(=O)O[C@@H]4O[C@H](CO)[C@@H](O)[C@H](O)[C@H]4O)[C@@H]2CC[C@]1(O[C@@H]1O[C@H](CO)[C@@H](O)[C@H](O[C@@H]2O[C@H](CO)[C@@H](O)[C@H](O)[C@H]2O)[C@H]1O[C@@H]1O[C@H](CO)[C@@H](O)[C@H](O)[C@H]1O)C3 [Rebaudioside A]
- Sweetness power [1]: 450

Compound: C=C1C[C@@]23CC[C@H]4[C@@](C)(CCC[C@@]4(C)C(=O)O[C@@H]4O[C@H](CO)[C@@H](O)[C@H](O)[C@H]4O)[C@@H]2CC[C@]1(O[C@@H]1O[C@H](CO)[C@@H](O)[C@H](O[C@@H]2O[C@H](CO)[C@@H](O)[C@H](O)[C@H]2O)[C@H]1O[C@@H]1O[C@H](CO)[C@@H](O)[C@H](O)[C@H]1O)C3 [Form 4, Rebaudioside A]
- solubility ([2]; listed as amorphous form): greater than 35%
- Rate of dissolution in H2O at 25° C. ([3]; grade in words): High
- Rate of dissolution in H2O at 25° C. ([3]; in 5 minutes): (>35% in

Compound: O=C1NS(=O)(=O)c2ccccc21 [Saccharine]
- Sweetness power [1]: 300

Compound: Thaumatin
- Sweetness power [1]: 3000
